The values below come from publication PMC8778681, “Crystal Structure, Solubility, and Pharmacokinetic Study on a Hesperetin Cocrystal with Piperine as Coformer” (Pharmaceutics, 2022).

Values after ≈ are worked out from the molar mass of the structure shown.

Series [1] can be described thus: Bioavailability / pharmacokinetics after oral gavage in rats. The format is in vivo. The conditions noted are these: Sprague-Dawley, 80 mg/kg, HES in rat plasma, equivalent to 80 mg HES/kg. Here is the method:
Eighteen Sprague–Dawley rats weighing 220–250 g were randomly divided into three groups (n = 6), fasted for 12 h but freely given water before the experiment. The HES, the physical mixture of HES and PIP, and the HES–PIP cocrystal were delivered by gavage at a dose equivalent to 80 mg of the HES/kg body weight of the animal as a suspension in water. Next, 500 µL blood was withdrawn and placed in a centrifuge tube with heparin from the eye sockets of rats at 0.25 h, 0.5 h, 1 h, 2 h, 4 h, 6 h, 8 h, 12 h, 24 h, and 48 h after oral administration. The plasma was separated by centrifugation (4000 rpm, 15 min) and saved at −80 °C until analysis. Next, 100 µL of plasma sample was added into 400 μL of methanol and vortexed for 5 min to fully precipitate the protein [44], then centrifuged at 10,000 rpm for 10 min. The supernatant was then transferred to another tube and evaporated to remove the solvent under a stream of nitrogen. The residual solid was then dissolved in methanol with vortex oscillation for 3 min, and the mixture was centrifuged at 10,000 rpm for 10 min. Finally, the supernatant was analyzed via HPLC method for HES content. PK parameters were obtained on the basis of a model-independent method using DAS 2 program.

Series [2] in a line: Solubility experiment in simulated gastrointestinal fluid. The format is physicochemical. The conditions noted are these: thermodynamic from solid, 100 rpm. Here is the method:
The solubility of the HES–PIP cocrystal in simulated gastrointestinal fluid was measured in the present study following the method described in the literature but slightly modified. The samples were previously milled and sieved (75–150 μm) before examination to reduce the effect of the crystal’s size on its solubility behavior. A specific amount (containing 25 mg of HES) of the HES–PIP cocrystal was weighed and added into a centrifuge tube containing 5 mL dissolving medium, and the suspension was incubated at 37 ± 0.2 °C rotating at 100 rpm. Taking a tube at 0.25 h, 0.5 h, 1 h, 2 h, 4 h, 6 h, 8 h, 12 h, 24 h, and 48 h, the samples were centrifuged at 12,000 rpm for 5 min, and the supernatant was diluted with methanol and analyzed by HPLC. The cocrystal’s solubility at different times was compared with that of raw HES. […] The residual solid in each tube was also analyzed by PXRD.
The cocrystal’s supersaturation factor (SF) was calculated through the drug supersaturation–time curve following the method presented in a previous study, and the calculation formula is as follows:(1) SF=AUC0.25−48 h(Cocrystal)/AUC0.25−48 h(Hesperetin) where SF is the supersaturation factor, AUC0.25–48 h (Cocrystal) is the area under the curve of the cocrystal supersaturation–time profile, and AUC0.25–48 h (Hesperetin) is the area under the curve for a saturated solution.

As to `COc1ccc([C@@H]2CC(=O)c3c(O)cc(O)cc3O2)cc1O` [HES, ((S)-2,3-dihydro-5,7-dihydroxy-2-(3-hydroxy-4 methoxy-phenyl)-4H-1-benzopyran-4-one)], in series [1] (n = 6), the AUC(0-t) came to 530 ng·h/mL, the Tmax is 0.5 h and the half-life is 3.01 h. The MRT last in series [1] (n = 6, read-out: MRT(0–t)) worked out at 5.86 h. In addition, the Cmax in series [1] (suspension in water, n = 6) amounted to 120 ng/mL. In series [2] (fassgf or other biorelevant, simulated gastrointestinal fluid pH 6.8, 37 °C, HES–PIP maximum at 6 h), this molecule returned a solubility of 21.1 µg/mL (≈ 69.9 µM). Besides, in series [2] (simulated gastric fluid, simulated gastrointestinal fluid pH 1.2, 37 °C, HES–PIP maximum at 8 h), the solubility is 23.1 µg/mL (≈ 76.5 µM).
